Data reported in US20060069132A1, “Azolecarboxamide herbicides” (priority 2004, published 2006).
Where two headings read alike, the source gives them in different places.

Columns and labels:
goosegrass = assay: Test C pre-/postemergence herbicide test; type: in vivo, Eleusine indica; details: preemergence; for Plant response rating (0 = no effect, 100 = complete control), Goosegrass: 125 g ai/ha
From the text: (§1) Seeds of plant species selected from bermudagrass (Cynodon dactylon (L.) Pers.), Surinam grass (Urochloa decumbens (Staph) R. D. Webster, previously named Brachiaria decumbens Stapf), cocklebur (Xanthium strumarium L.), corn (Zea mays L.), large crabgrass (Digitaria sanguinalis (L.) Scop.), woolly cupgrass (Eriochloa villosa (Thunb.) Kunth), giant foxtail (Setaria faberi Herrm.), goosegrass (Eleusine indica (L.) Gaertn.), johnsongrass (Sorghum halepense (L.) Pers.), kochia (Kochia scoparia (L.) Schrad.), lambsquarters (Chenopodium album L.), morningglory (Ipomoea coccinea L.), eastern black nightshade (Solanum ptycanthum Dunal), yellow nutsedge (Cyperus esculentus L.), pigweed (Amaranthus retroflexus L.), common ragweed (Ambrosia elatior L.), soybean (Glycine max (L.) Merr.), common (oilseed) sunflower (Helianthus annuus L.) and velvetleaf (Abutilon theophrasti Medik.) were planted and treated preemergence with test chemicals formulated in a non-phytotoxic solvent mixture which included a surfactant.
(§2) At the same time, plants selected from these crop and weed species and also winter barley (Hordeum vulgare L.), blackgrass (Alopecurus myosuroides Huds.), canarygrass (Phalaris minor Retz.), chickweed (Stellaria media (L.) Vill.), downy bromegrass (Bromus tectorum L.), green foxtail (Setaria viridis (L.) Beauv.), Italian ryegrass (Lolium multiflorum Lam.), wheat (Triticum aestivum L.), wild oat (Avenafatua L.) and windgrass (Apera spica-venti (L.) Beauv.) were treated with postemergence applications of some of the test chemicals formulated in the same manner. Plants ranged in height from 2 to 18 cm (1- to 4-leaf stage) for postemergence treatments. Plant species in the flooded paddy test consisted of rice (Oryza sativa), smallflower umbrella sedge (Cyperus difformis L.), ducksalad (Heteranthera limosa (Sw.) Willd.) and barnyardgrass (Echinochloa crus-galli (L.) Beauv.) grown to the 2-leaf stage for testing. Treated plants and controls were maintained in a greenhouse for 12 to 14 days, after which time all species were compared to controls and visually evaluated. Plant response ratings, summarized in Table C, are based on a scale of 0 to 100 where 0 is no effect and 100 is complete control. A dash (-) response means no test result.

soybean = assay: Test C pre-/postemergence herbicide test; type: in vivo, Glycine max; details: preemergence
From the text: as §1, §2

morningglory [1] = assay: Test C pre-/postemergence herbicide test; type: in vivo, Ipomoea coccinea; parameters: key to Plant response rating, Morningglory: 0 = no effect, 100 = complete control; details: preemergence
From the text: as §1, §2

bermudagrass = assay: Test C pre-/postemergence herbicide test; type: in vivo, Cynodon dactylon; details: for Plant response rating (0 = no effect, 100 = complete control), Bermudagrass: 125 g ai/ha
From the text: as §1, §2

velvetleaf [2] = assay: Test B pre-/postemergence herbicide test; type: in vivo, Abutilon theophrasti; details: for Plant response rating (0 to 100 scale), Velvetleaf / Plant response rating, Velvetleaf: preemergence
Procedure, shortened: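 Seeds were planted and treated preemergence with compounds formulated in a non-phytotoxic solvent mixture containing surfactant, while plants at the 1- to 4-leaf stage (2 to 18 cm) received postemergence sprays. Flooded paddy plants were grown to the 2-leaf stage. After 13 to 15 days in a greenhouse, injury was visually rated 0–100 against untreated controls.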

woolly cupgrass = assay: Test C pre-/postemergence herbicide test; type: in vivo, Eriochloa villosa; details: preemergence; for Plant response rating (0 = no effect, 100 = complete control), Cupgrass, Woolly: 125 g ai/ha
From the text: as §1, §2

velvetleaf [3] = assay: Test A pre-/postemergence herbicide test; type: in vivo, Abutilon theophrasti; details: for pest or weed control at 125 g/ha / pest or weed control at 500 g/ha: Abutilon theophrasti, 240 h, read-out: Velvetleaf plant response rating; for pest or weed control at 125 g/ha: 125 g ai/ha
Procedure, shortened: (§3)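 Visual injury scores on a 0–100 scale (100 = complete control) taken about ten days post-treatment in greenhouse against untreated controls; dash means no result. Treatments: preemergence soil spray and postemergence spray to runoff on one- to two-leaf plants 2 to 10 cm tall, surfactant-containing formulation.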

morningglory [4] = assay: Test A pre-/postemergence herbicide test; type: in vivo, Ipomoea spp.; details: for pest or weed control at 125 g/ha / pest or weed control at 500 g/ha: Ipomoea, 240 h, read-out: Morningglory plant response rating; for pest or weed control at 125 g/ha: 125 g ai/ha
Procedure, shortened: as §3

[5] = 500 g ai/ha, scale 0 to 100 (0 no effect, 100 complete control), visual, 12 to 14 days
[6] = 62 g ai/ha, preemergence, scale 0 to 100, 0 no effect, 100 complete control
[7] = 250 g ai/ha, scale 0-100, preemergence
[8] = 500 g ai/ha, scale 0 to 100 (0 no effect, 100 complete control), visual, 12 to 14 days, preemergence
[9] = 125 g ai/ha, 0 is no effect, 100 is complete control
[10] = 125 g ai/ha, visual rating, scale 0 (no effect) to 100 (complete control), postemergence
[11] = postemergence, 500 g ai/ha, scale 0 to 100, 0 is no effect, 100 is complete control
[12] = Postemergence, 500 g ai/ha, 0 to 100 scale, 0 no effect, 100 complete control
[13] = Postemergence, 2000 g ai/ha, 0 to 100 scale, 0 no effect, 100 complete control
[14] = Preemergence, 2000 g ai/ha, visual rating, 0 to 100 scale (0 no effect, 100 complete control)
[15] = Postemergence, 500 g ai/ha, scale 0 (no effect) to 100 (complete control)
[16] = post-emergence, Postemergence, 0 to 100 scale, 0 no effect, 100 complete control
[17] = post-emergence, Postemergence, 500 g ai/ha, 0 to 100 scale, 0 no effect, 100 complete control
[18] = pre-emergence, preemergence, visual injury, 0 to 100 scale (0 no effect, 100 complete control)
[19] = pre-emergence, preemergence, 500 g ai/ha, visual injury, 0 to 100 scale (0 no effect, 100 complete control)

Row | SMILES | Plant response rating, Goosegrass (goosegrass; 62 g ai/ha, scale 0 to 100) | Plant response rating (0 = no effect, 100 = complete control), Goosegrass (goosegrass) | Plant response rating, Goosegrass (goosegrass; 250 g ai/ha, scale 0-100) | Plant response rating, Goosegrass (goosegrass; [5]) | Plant response rating, Morningglory (morningglory [1]; 62 g ai/ha, scale 0 to 100) | Plant response rating, Bermudagrass (bermudagrass; [6]) | Plant response rating (0 = no effect, 100 = complete control), Bermudagrass (bermudagrass; preemergence) | Plant response rating, Bermudagrass (bermudagrass; [7]) | Plant response rating, Bermudagrass (bermudagrass; [8]) | Plant response rating (0 to 100 scale), Velvetleaf (velvetleaf [2]; [9]) | Velvetleaf plant response rating (velvetleaf [2]; [10]) | Velvetleaf plant response rating (velvetleaf [2]; [11]) | Plant response rating, Cupgrass, Woolly (woolly cupgrass; 62 g ai/ha, scale 0 to 100) | Plant response rating (0 = no effect, 100 = complete control), Cupgrass, Woolly (woolly cupgrass) | Plant response rating, Cupgrass, Woolly (woolly cupgrass; 250 g ai/ha, scale 0-100) | Plant response rating, Cupgrass, Woolly (woolly cupgrass; [5]) | Velvetleaf plant response rating (velvetleaf [2]; [15]) | other results
1 | CCC1=NN(C(C)(C)C)CC1C(=O)Nc1cc(C(=O)N(C)C)ccc1F (racemic) [Compound 343] | 60 | 75 | 80 | 85 | 5 | 60 | 70 | 90 | 90 | 100 | 20 | 50 | 40 | 65 | 70 | 100 | – | Plant response rating, Soybean (soybean; 62 g ai/ha, scale 0 to 100): 40; Plant response rating (0 = no effect, 100 = complete control), Soybean (soybean; 125 g ai/ha): 80; Plant response rating, Soybean (soybean; 250 g ai/ha, scale 0-100): 100; Plant response rating, Soybean (soybean; [5]): 100; Plant response rating (0 = no effect, 100 = complete control), Morningglory (morningglory [1]; 125 g ai/ha): 60; Plant response rating, Morningglory (morningglory [1]; 250 g ai/ha, scale 0-100): 100; Plant response rating, Morningglory (morningglory [1]; [5]): 100
2 | C=Cn1nc(C(C)(C)C)cc1C(=O)Nc1cccc(C(C)=O)c1 [Compound 127] | – | – | – | – | – | – | – | – | – | – | – | – | – | – | – | – | – | Velvetleaf plant response rating (velvetleaf [3]; [12]): 0; Plant response rating, Velvetleaf (velvetleaf [3]; [13]): 0; Velvetleaf plant response rating (velvetleaf [3]; [14]): 30; Velvetleaf plant response rating (velvetleaf [3]; preemergence, 500 g ai/ha, visual injury, 0 to 100 scale (0 no effect, 100 complete control)): 10; Morningglory plant response rating (morningglory [4]; [12]): 10; Plant response rating, Morningglory (morningglory [4]; [13]): 20; Morningglory plant response rating (morningglory [4]; Preemergence, 500 g ai/ha, visual rating, 0 to 100 scale (0 no effect, 100 complete control)): 30; Morningglory plant response rating (morningglory [4]; [14]): 30; Plant response rating, Velvetleaf (velvetleaf [2]; 500 g ai/ha, visual rating 0-100, 0 no effect, 100 complete control): 20; Velvetleaf plant response rating (velvetleaf [2]; postemergence, 125 g ai/ha, visual rating, scale 0 (no effect) to 100 (complete control)): 0; Velvetleaf plant response rating (velvetleaf [2]; postemergence, 500 g ai/ha, visual rating, scale 0 (no effect) to 100 (complete control)): 10; Plant response rating, Velvetleaf (velvetleaf [2]; 125 g ai/ha, 0 to 100 scale, 0 is no effect, 100 is complete control): 10
3 | CCNC(=O)c1ccc(F)c(NC(=O)c2c3c(nn2CC)C(C)(C)CC3)c1 [Compound 353] | – | – | – | – | – | – | – | – | – | 10 | 20 | 20 | – | – | – | – | – | –
4 | CCc1nn(C(C)(C)C)nc1C(=O)Nc1cccc(C(=O)N(C)CC)c1 [Compound 384] | 85 | 95 | 100 | – | – | 100 | 100 | 100 | – | 70 | 30 | – | 55 | 75 | 95 | – | 70 | Plant response rating, Bermudagrass (bermudagrass; 31 g ai/ha, scale 0 to 100, 0 no effect, 100 complete control, last section of Table C (species set of preemergence test)): 65
5 | Cc1nn(C(C)(C)C)nc1C(=O)Nc1cccc(C(=O)N2CC=CC2)c1 [Compound 393] | 85 | 100 | 100 | 100 | 60 | 60 | 100 | 100 | 100 | 50 | 40 | – | 30 | 70 | 90 | 100 | 60 | –
6 | CCNC(=O)c1cccc(NC(=O)c2nc(C(C)(C)C)nn2CC)c1 [Compound 446, 3-(1,1-dimethylethyl)-1-ethyl-N-[3-[(ethylamino)carbonyl]phenyl]-1H-1,2,4-triazole-5-carboxamide] | – | – | – | – | – | – | – | – | – | – | – | – | – | – | – | – | – | pest or weed control at 125 g/ha (velvetleaf [3]; [16]): 30%; pest or weed control at 500 g/ha (velvetleaf [3]; [17]): 60%; pest or weed control at 125 g/ha (velvetleaf [3]; [18]): 10%; pest or weed control at 500 g/ha (velvetleaf [3]; [19]): 20%; pest or weed control at 125 g/ha (morningglory [4]; [16]): 10%; pest or weed control at 500 g/ha (morningglory [4]; [17]): 40%; pest or weed control at 125 g/ha (morningglory [4]; [18]): 10%; pest or weed control at 500 g/ha (morningglory [4]; [19]): 15%
